{"source": "patent US6855512B2", "about": "“Methods for identifying inhibitors of cytochrome P450RAI” (Allergan, Inc., priority 2000, dated 2005)", "key": {"[1]": {"biological_target": "T1, P450RAI-1 (Homo sapiens, UniProt O43174)", "T1 construct": "expressed in transfected cells; host or cells: HeLa (stably transfected, hygromycin selection)", "T1 sequence (O43174 1-497)": "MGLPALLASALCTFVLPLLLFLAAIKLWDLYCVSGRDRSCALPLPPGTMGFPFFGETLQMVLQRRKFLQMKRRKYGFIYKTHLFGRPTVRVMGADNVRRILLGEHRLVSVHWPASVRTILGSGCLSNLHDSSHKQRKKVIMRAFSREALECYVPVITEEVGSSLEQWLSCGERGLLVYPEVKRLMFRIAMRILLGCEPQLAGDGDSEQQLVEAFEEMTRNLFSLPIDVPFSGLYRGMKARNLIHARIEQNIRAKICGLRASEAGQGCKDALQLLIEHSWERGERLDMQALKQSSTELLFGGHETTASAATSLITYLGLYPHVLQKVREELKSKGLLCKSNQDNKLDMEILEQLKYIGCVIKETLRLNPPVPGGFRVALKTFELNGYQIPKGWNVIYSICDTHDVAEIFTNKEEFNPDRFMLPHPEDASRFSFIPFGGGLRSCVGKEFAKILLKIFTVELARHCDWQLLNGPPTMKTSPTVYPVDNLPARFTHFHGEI", "test": "P450RAI-1 cell-based inhibitor assay (intact HeLa)", "settings": "read-out: P450RAI INHIBITION DATA INTACT HELA IC50", "protocol": "P450RAI-1 Cell-Based Inhibitor Assay:\nP450RAI-1 stably transfected HeLa cells are maintained in […] tissue culture dishes in Modified Eagle's Medium (MEM) containing 10% Fetal Bovine Serum (FBS) and 100 μg/ml hygromycin. Exponentially growing cells are harvested by incubating in trypsin. Cells are then washed with 1× Phosphate Buffered Saline (PBS) and plated in a 48-well plate at 5×10^5 cells in 0.2 ml MEM medium containing 10% FBS and 0.05 μCi [^3H]-RA in the presence or absence of increasing concentrations of the test compounds. The compounds are diluted in 100% DMSO and then added in triplicate wells at either 10, 1 or 0.1 μM final concentration. As a positive control for RA metabolism inhibition, cells are also incubated with ketoconazole at 100, 10 and 1 μM. Cell are incubated for 3 hours at 37° C. […] The water soluble radioactivity is quantified using β-scintillation counter. IC50 values represent the concentration of inhibitor required to inhibit all-trans-RA metabolism by 50 percent and are derived manually from log-transformed data."}, "[2]": {"biological_target": "T2, RARα (Homo sapiens, UniProt P10276)", "T2 sequence (P10276 183-417 limits assumed)": "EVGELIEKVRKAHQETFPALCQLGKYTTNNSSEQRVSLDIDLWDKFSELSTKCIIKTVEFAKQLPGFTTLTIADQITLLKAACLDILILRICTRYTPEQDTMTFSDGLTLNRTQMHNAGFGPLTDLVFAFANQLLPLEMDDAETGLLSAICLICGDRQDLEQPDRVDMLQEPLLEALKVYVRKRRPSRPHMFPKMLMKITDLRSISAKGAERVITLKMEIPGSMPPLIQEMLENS", "test": "chimeric receptor transactivation assay, RARα", "assay_type": "cell-based", "settings": "EC50 line of EC50/(EFFICACY)/Kd, read-out: RAR α EC50", "text": "(§1) Assays described below measure the ability of a compound to bind to, and/or activate various retinoid receptor subtypes. When in these assays a compound binds to a given receptor subtype and activates the transcription of a reporter gene through that subtype, then the compound is considered an agonist of that receptor subtype. […] In the below described assays the ability of the compounds to bind to RARα, RARβ, RARγ, RXRα, RXRβ and RXRγ receptors, and the ability or inability of the compounds to activate transcription of a reporter gene through these receptor subtypes can be tested.\n(§2) The results obtained in this assay are expressed in EC50 numbers, as they are also in the chimeric receptor transactivation assay. The results of ligand binding assay are expressed in Kd numbers."}, "[3]": {"biological_target": "T3, RARβ (Homo sapiens, UniProt P10826)", "T3 sequence (P10826 183-417 limits assumed)": "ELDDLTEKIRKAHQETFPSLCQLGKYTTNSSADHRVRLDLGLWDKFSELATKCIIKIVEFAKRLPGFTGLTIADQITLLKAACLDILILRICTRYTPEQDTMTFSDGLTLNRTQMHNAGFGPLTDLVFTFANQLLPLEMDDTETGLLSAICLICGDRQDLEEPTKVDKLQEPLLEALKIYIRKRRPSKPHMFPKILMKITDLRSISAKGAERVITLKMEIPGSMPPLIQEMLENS", "test": "chimeric receptor transactivation assay, RARβ", "assay_type": "cell-based", "settings": "EC50 line of EC50/(EFFICACY)/Kd, read-out: RAR β EC50", "text": "as §1, §2"}, "[4]": {"biological_target": "T4, RARα (Homo sapiens, UniProt P10276)", "T4 sequence (P10276 1-462)": "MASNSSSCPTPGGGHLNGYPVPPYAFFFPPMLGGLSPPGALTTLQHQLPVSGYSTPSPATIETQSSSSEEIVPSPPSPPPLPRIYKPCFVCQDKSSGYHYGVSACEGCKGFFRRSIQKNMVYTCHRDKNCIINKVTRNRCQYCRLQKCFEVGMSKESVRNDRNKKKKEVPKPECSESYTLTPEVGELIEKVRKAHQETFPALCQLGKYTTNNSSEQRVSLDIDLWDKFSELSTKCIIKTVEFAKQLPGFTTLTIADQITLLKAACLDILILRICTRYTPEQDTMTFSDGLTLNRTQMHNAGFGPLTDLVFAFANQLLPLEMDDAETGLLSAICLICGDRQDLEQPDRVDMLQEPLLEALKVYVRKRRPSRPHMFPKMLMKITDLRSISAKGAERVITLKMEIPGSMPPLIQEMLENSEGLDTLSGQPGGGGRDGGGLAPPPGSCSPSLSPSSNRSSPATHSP", "test": "ligand binding assay, RARα", "settings": "Kd line of EC50/(EFFICACY)/Kd, K = thousand, read-out: RAR α Kd", "text": "as §1, §2"}, "[5]": {"biological_target": "T5, RARβ (Homo sapiens, UniProt P10826)", "T5 sequence (P10826 1-455)": "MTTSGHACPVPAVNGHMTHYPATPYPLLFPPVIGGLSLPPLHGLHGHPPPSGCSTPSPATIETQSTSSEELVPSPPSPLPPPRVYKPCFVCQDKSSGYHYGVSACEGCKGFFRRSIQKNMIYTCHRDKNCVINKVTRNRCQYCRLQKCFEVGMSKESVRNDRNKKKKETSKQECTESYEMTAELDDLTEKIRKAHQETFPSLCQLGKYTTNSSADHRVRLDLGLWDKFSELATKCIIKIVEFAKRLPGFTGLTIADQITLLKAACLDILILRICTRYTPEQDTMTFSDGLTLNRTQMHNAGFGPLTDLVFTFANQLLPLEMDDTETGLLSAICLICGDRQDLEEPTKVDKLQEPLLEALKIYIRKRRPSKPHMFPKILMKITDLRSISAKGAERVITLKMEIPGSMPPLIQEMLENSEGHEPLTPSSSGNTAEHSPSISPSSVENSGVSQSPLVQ", "test": "ligand binding assay, RARβ", "settings": "Kd line of EC50/(EFFICACY)/Kd, K = thousand, read-out: RAR β Kd", "text": "as §1, §2"}}, "data": [{"smiles": "CC1(C)CC(C)(C)c2cc(C#Cc3ccc(C(=O)O)cc3)ccc2O1", "note": "[Compound 201]", "values": [{"measurement": "IC50", "setting": "[1]", "result": 520, "unit": "nM"}, {"measurement": "EC50", "setting": "[2]", "result": "> 10000", "unit": "nM"}, {"measurement": "EC50", "setting": "[3]", "result": "> 10000", "unit": "nM"}, {"measurement": "Kd", "setting": "[4]", "result": 90, "unit": "nM"}, {"measurement": "Kd", "setting": "[5]", "result": 1100, "unit": "nM"}]}]}
